US5538968A, “Geneserine derivatives processes as cholinesterase inhibitors” (priority 1991, dated 1996)
Where a name gives a salt, the structure may show the parent alone.

Tested on: acetylcholinesterase (AchE) in the brain
Test: Time course of inhibition of brain acetylcholinesterase (AchE) in the rat after s.c. administration (Ellman acetylthiocholine method, ex vivo)
Design: species or system rat (male Crl:CD (SD) BR)
Conditions: for Time of peak effect on brain AchE: at doses producing effects comparable to 9 mg/kg CHF 2060
Procedure: 1. Acetylcholinesterase inhibition
The time course of inhibition of acetylcholinesterase (AchE) in the brain was assessed in male Crl:CD (SD) BR rats (Charles River Italia), weighing between 150-250 g.
The test substances were administered by s.c. route, dissolved in 2 ml/kg of sterile saline. 9 animals/group/time were used.
Controls received the vehicle only.
At various intervals (10-60-120-240 min) after administration the rats were sacrificed by decapitation and the brains were rapidly removed, weighed and immediately placed in 1 ml of phosphate buffer 0.1M, pH 8.0, added with 1% Triton 100 (Merck).
After homogenization and centrifugation at 19943 g for 15 min at 4° C. the surnatant was separated and used for the determination of AchE activity according to the acetyltiocholine method described by Ellmann (Ellman G. L. et al., Biochem. Pharmacol. 7, 88, 1961).
The activity concentrations obtained (U/l surnatant) were individually corrected for the brain weight.

CCCCCCCNC(=O)Oc1ccc2c(c1)C1(C)CCN(C)OC1N2C [CHF 2060, N-heptyl-geneserine L-tartrate]
AUC 0-4 h of inhibition of brain acetylcholinesterase (9 mg/kg s.c.): 127 % inib. hr
Max % inhib. of brain acetylcholinesterase (9 mg/kg s.c.): 45%
T max (time of the maximal inhibition) (9 mg/kg s.c.): ≥ 240 min
Brain acetylcholinesterase % inhib. (9 mg/kg s.c., 10 min): 11%
Brain acetylcholinesterase activity, U/1 surn. (9 mg/kg s.c., 10 min): 3094 ± 197 U/1 surn.
Brain acetylcholinesterase activity, U/1 surn. (9 mg/kg s.c., 60 min): 2294 ± 150 U/1 surn.
Brain acetylcholinesterase % inhib. (9 mg/kg s.c., 60 min, ** P < 0.01): 29%
Brain acetylcholinesterase activity, U/1 surn. (9 mg/kg s.c., 120 min): 2205 ± 171 U/1 surn.
Brain acetylcholinesterase % inhib. (9 mg/kg s.c., 120 min, ** P < 0.01): 33%
Brain acetylcholinesterase activity, U/1 surn. (9 mg/kg s.c., 240 min): 1565 ± 80 U/1 surn.
Brain acetylcholinesterase % inhib. (9 mg/kg s.c., 240 min, ** P < 0.01): 45%
AUC 0-4 h of inhibition of brain acetylcholinesterase (27 mg/kg s.c.): 190 % inib. hr
Max % inhib. of brain acetylcholinesterase (27 mg/kg s.c.): 68%
T max (time of the maximal inhibition) (27 mg/kg s.c.): ≥ 240 min
Factor of increase of effect between 120 and 240 min (27 mg/kg s.c., 120 to 240 min): 1.4
Brain acetylcholinesterase % inhib. (27 mg/kg s.c., 10 min): 12%
Brain acetylcholinesterase activity, U/1 surn. (27 mg/kg s.c., 10 min): 3070 ± 117 U/1 surn.
Brain acetylcholinesterase activity, U/1 surn. (27 mg/kg s.c., 60 min): 1782 ± 164 U/1 surn.
Brain acetylcholinesterase % inhib. (27 mg/kg s.c., 60 min, ** P < 0.01): 45%
Brain acetylcholinesterase activity, U/1 surn. (27 mg/kg s.c., 120 min): 1629 ± 38 U/1 surn.
Brain acetylcholinesterase % inhib. (27 mg/kg s.c., 120 min, ** P < 0.01): 50%
Brain acetylcholinesterase activity, U/1 surn. (27 mg/kg s.c., 240 min): 914 ± 26 U/1 surn.
Brain acetylcholinesterase % inhib. (27 mg/kg s.c., 240 min, ** P < 0.01): 68%
Inhibition of brain AchE (qualitative) (s.c.): long-lasting inhibitor of brain AchE
Course of effect during the 4 hrs following the treatment (s.c., 0-4 hrs): increase gradually during the 4 hrs following the treatment
Duration of action compared with Heptyl physostigmine tartrate (s.c., 27 mg/kg vs 1 mg/kg HPYS, similar AUC): more sustained action
Significant inhibition of brain AchE (s.c., 1 hr after administration (9 and 27 mg/kg), P<0,001): 29-45%
Factor of increase of effect within 4 hrs in respect to the first hour (s.c., 4 hrs vs 1 hr (9 and 27 mg/kg)): 1.5-1.6

CNC(=O)Oc1ccc2c(c1)C1(C)CCN(C)OC1N2C (stereo not drawn) [Geneserine tartrate]
AUC 0-4 h of inhibition of brain acetylcholinesterase (3 mg/kg s.c.): 133 % inib. hr
Max % inhib. of brain acetylcholinesterase (3 mg/kg s.c.): 53-57%
T max (time of the maximal inhibition) (3 mg/kg s.c.): 10 to 60 min
Brain acetylcholinesterase activity, U/1 surn. (3 mg/kg s.c., 10 min): 1447 ± 100 U/1 surn.
Brain acetylcholinesterase % inhib. (3 mg/kg s.c., 10 min, ** P < 0.01): 53%
Brain acetylcholinesterase activity, U/1 surn. (3 mg/kg s.c., 60 min): 1231 ± 86 U/1 surn.
Brain acetylcholinesterase % inhib. (3 mg/kg s.c., 60 min, ** P < 0.01): 57%
Brain acetylcholinesterase activity, U/1 surn. (3 mg/kg s.c., 120 min): 2162 ± 134 U/1 surn.
Brain acetylcholinesterase % inhib. (3 mg/kg s.c., 120 min, ** P < 0.01): 28%
Brain acetylcholinesterase % inhib. (3 mg/kg s.c., 240 min): 12%
Brain acetylcholinesterase activity, U/1 surn. (3 mg/kg s.c., 240 min): 2139 ± 208 U/1 surn.
Factor of reduction of effect 120 min. after the treatment (s.c., 120 min vs peak): 1.5-2
Effect on brain AchE after 240 min. (s.c.): disappears after 240 min
Time of peak effect on brain AchE (s.c.): 10 to 60 min
Onset of effect compared with CHF 2060 (s.c., vs 9 mg/kg CHF 2060, comparable AUC and maximum inhibition): more rapid effect

CCCCCCCNC(=O)Oc1ccc2c(c1)[C@]1(C)CCN(C)[C@@H]1N2C [Heptyl physostigmine tartrate]
AUC 0-4 h of inhibition of brain acetylcholinesterase (0.3 mg/kg s.c.): 94 % inib. hr
AUC 0-4 h of inhibition of brain acetylcholinesterase (1 mg/kg s.c.): 178 % inib. hr
Max % inhib. of brain acetylcholinesterase (1 mg/kg s.c.): 54%
T max (time of the maximal inhibition) (1 mg/kg s.c.): 60 min
Factor of reduction of effect between 120 and 240 min (1 mg/kg s.c., 120 to 240 min): 1.4
Brain acetylcholinesterase activity, U/1 surn. (1 mg/kg s.c., 10 min): 2246 ± 115 U/1 surn.
Brain acetylcholinesterase % inhib. (1 mg/kg s.c., 10 min, ** P < 0.01): 29%
Brain acetylcholinesterase activity, U/1 surn. (1 mg/kg s.c., 60 min): 1166 ± 85 U/1 surn.
Brain acetylcholinesterase % inhib. (1 mg/kg s.c., 60 min, ** P < 0.01): 54%
Brain acetylcholinesterase activity, U/1 surn. (1 mg/kg s.c., 120 min): 1506 ± 115 U/1 surn.
Brain acetylcholinesterase % inhib. (1 mg/kg s.c., 120 min, ** P < 0.01): 52%
Brain acetylcholinesterase activity, U/1 surn. (1 mg/kg s.c., 240 min): 1867 ± 52 U/1 surn.
Brain acetylcholinesterase % inhib. (1 mg/kg s.c., 240 min, ** P < 0.01): 36%

CNC(=O)Oc1ccc2c(c1)[C@]1(C)CCN(C)[C@@H]1N2C [Physostigmine]
AUC 0-4 h of inhibition of brain acetylcholinesterase (0.4 mg/kg s.c.): 135 % inib. hr
Brain acetylcholinesterase activity, U/1 surn. (0.4 mg/kg s.c., 10 min): 1368 ± 125 U/1 surn.
Brain acetylcholinesterase activity, U/1 surn. (0.4 mg/kg s.c., 60 min): 1483 ± 148 U/1 surn.
Brain acetylcholinesterase activity, U/1 surn. (0.4 mg/kg s.c., 120 min): 1829 ± 94 U/1 surn.
Brain acetylcholinesterase activity, U/1 surn. (0.4 mg/kg s.c., 240 min): 2234 ± 151 U/1 surn.
Effect on brain AchE after 240 min. (s.c.): disappears after 240 min
Time of peak effect on brain AchE (s.c.): 10 to 60 min
